Active and inactive are the calls of the source. The rule behind the calls is not given here.
Tests used:
[1] = system: PBMC; assay: Immunomodulatory activity in human PBMC assessed as reduction in house dust mite induced IL-13 level after 6 days; type: functional, cell-based; conditions: dose 0.01-10000 nM, time 6.0 day
[2] = system: Mus musculus; assay: Increase in IFN-alpha level in intranasally dosed BALB/c mouse nasal lavage after 6 hrs; type: functional, organism-based
[3] = target: T1, Toll-like receptor 7 (Homo sapiens, UniProt Q9NYK1); assay: Agonist activity at TLR7 in human U2OS cells; type: cell-based
T1 sequence (Q9NYK1 whole entry): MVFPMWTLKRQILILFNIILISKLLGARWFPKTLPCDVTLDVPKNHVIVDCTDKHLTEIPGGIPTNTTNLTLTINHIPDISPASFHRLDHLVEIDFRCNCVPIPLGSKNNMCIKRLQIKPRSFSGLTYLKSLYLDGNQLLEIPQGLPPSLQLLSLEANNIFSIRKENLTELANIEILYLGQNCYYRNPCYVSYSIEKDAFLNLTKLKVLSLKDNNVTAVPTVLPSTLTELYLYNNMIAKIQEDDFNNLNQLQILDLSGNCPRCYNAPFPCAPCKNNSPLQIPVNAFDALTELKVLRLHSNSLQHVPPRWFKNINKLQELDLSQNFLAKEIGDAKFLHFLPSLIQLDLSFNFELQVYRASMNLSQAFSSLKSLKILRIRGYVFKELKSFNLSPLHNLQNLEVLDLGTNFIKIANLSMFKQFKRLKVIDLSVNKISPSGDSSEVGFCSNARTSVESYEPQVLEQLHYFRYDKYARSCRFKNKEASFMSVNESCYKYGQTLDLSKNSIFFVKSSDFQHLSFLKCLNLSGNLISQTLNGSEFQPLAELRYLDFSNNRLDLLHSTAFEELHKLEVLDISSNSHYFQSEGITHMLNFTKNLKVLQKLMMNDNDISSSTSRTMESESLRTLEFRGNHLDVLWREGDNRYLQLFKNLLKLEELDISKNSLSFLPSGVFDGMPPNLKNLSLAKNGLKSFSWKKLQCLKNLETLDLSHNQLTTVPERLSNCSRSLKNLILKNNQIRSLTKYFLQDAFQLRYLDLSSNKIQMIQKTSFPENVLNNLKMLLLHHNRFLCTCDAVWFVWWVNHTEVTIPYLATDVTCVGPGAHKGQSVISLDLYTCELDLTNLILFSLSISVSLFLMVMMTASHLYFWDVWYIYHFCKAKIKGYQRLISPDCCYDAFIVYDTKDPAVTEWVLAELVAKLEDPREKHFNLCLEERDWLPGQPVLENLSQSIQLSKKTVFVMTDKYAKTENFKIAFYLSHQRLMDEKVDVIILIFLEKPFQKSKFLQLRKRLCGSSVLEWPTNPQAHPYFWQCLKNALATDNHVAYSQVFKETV

[4] = Oral bioavailability in rat; type: ADME, organism-based; conditions: in vivo
[5] = target: T2, Toll-like receptor 7 (Macaca fascicularis) (UniProt B3Y652); assay: In vivo target occupancy at TLR7 in cynomolgus monkey assessed as fold increase in OAS3 mRNA expression in nasal scrape at 30 ng/kg administered intranasally incubated for 24 hrs by TaqMan analysis (reference value: 0.9); type: functional
T2 sequence (whole entry): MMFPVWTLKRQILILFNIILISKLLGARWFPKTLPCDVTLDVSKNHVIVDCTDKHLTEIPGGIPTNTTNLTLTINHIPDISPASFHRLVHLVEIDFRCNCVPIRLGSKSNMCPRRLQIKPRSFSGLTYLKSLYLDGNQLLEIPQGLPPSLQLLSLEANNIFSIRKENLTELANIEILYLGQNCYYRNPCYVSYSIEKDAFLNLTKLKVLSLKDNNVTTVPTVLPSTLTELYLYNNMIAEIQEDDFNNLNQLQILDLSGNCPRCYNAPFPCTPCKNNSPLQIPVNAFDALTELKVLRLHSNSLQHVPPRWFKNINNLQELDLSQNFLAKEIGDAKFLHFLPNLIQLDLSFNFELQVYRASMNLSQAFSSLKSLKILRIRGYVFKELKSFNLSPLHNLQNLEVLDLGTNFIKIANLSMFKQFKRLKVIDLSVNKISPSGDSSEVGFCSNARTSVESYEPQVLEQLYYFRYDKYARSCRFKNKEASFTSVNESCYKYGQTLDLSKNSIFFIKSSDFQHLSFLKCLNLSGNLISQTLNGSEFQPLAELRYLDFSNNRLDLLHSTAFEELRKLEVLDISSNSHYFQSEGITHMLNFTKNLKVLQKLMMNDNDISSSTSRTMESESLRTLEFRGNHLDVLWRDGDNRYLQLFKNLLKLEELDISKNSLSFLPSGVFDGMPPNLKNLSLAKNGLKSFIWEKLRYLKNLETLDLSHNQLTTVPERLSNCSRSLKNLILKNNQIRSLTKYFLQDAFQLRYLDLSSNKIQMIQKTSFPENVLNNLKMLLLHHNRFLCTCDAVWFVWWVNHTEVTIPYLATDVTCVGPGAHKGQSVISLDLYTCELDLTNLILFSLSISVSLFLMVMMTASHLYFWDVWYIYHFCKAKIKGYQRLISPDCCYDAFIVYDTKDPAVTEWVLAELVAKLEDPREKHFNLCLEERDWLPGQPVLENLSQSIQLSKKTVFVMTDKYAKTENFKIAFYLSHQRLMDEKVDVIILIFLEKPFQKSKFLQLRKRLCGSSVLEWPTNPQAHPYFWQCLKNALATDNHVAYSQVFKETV

[6] = target: T1, Toll-like receptor 7; assay: Agonist activity at TLR7 in human whole blood assessed as induction of IL-10 production after 20 hrs by electrochemiluminescence assay; type: tissue-based
[7] = system: PBMC; assay: Immunomodulatory activity in human PBMC assessed as reduction in timothy grass induced IL-5 level after 6 days; type: functional, cell-based; conditions: dose 0.01-10000 nM, time 6.0 day
[8] = Selectivity ratio of pEC50 for agonist activity at TLR7 in human whole blood to pEC50 for agonist activity at TLR7 in BALB/c mouse splenocytes; type: cell-based
[9] = target: T2, Toll-like receptor 7 (Macaca fascicularis); assay: In vivo target occupancy at TLR7 in cynomolgus monkey assessed as fold increase in OAS3 mRNA expression in nasal scrape at 3 ng/kg administered intranasally incubated for 24 hrs by TaqMan analysis (reference value: 0.9); type: functional
[10] = target: T2, Toll-like receptor 7 (Macaca fascicularis); assay: In vivo target occupancy at TLR7 in cynomolgus monkey assessed as fold increase in CCL8 mRNA expression in nasal scrape at 3 ng/kg administered intranasally incubated for 24 hrs by TaqMan analysis (reference value: 1); type: functional
[11] = target: T1, Toll-like receptor 7; assay: Agonist activity at TLR7 in human whole blood assessed as induction of IL-1beta production after 20 hrs by electrochemiluminescence assay; type: tissue-based
[12] = Toxicity in monkey assessed as NOAEL after 8 weeks; design: species or system Macaca mulatta; conditions: rhesus monkey, in vivo, 1344 h
[13] = target: T2, Toll-like receptor 7 (Macaca fascicularis); assay: In vivo target occupancy at TLR7 in cynomolgus monkey assessed as fold increase in OAS2 mRNA expression in nasal scrape at 3 ng/kg administered intranasally incubated for 24 hrs by TaqMan analysis (reference value: 1); type: functional

- EC50 [3]: 2 µM
- bioavailability [4]: 1%
- fold change (FC) [5]: 101
- EC50 [6]: 0.251 µM
- fold change (FC) [9]: 86.3
- fold change (FC) [10]: 3970
- EC50 [11]: 5.01 µM
- fold change (FC) [13]: 128
Compound: CCC[C@H](C)Oc1nc(N)c2[nH]c(=O)n(CCCCCN3CCCCC3)c2n1 [GSK-2245035]
- Activity [1]: Dose-Dependent Effect
- Activity [2]: inactive
- Activity [7]: Dose-Dependent Effect
- Selectivity ratio [8]: 10
- NOAEL [12]: 0.0359 µg/kg
